For six compounds, percent degradation of TPM3-TRKA protein results are on record in patent publication US12410171B2, “Tropomyosin receptor kinase (TRK) degradation compounds and methods of use” (Cullgen (Shanghai), Inc., priority 2020, dated 2025).

This test concerns the target T1, TPM3-TRKA fusion protein (Homo sapiens, UniProt P04629).
T1 construct: The resulted chimeric proteins always retain the kinase domain of TRK proteins; TPM3 (fusion partner, N-terminal part of tropomyosin alpha-3, P06753); endogenous in cells; host or cells: KM12 colon cancer cells; the other entry of the earlier key: TPM3 (P06753, Tropomyosin alpha-3 chain)
The experiment in a line: TPM3-TRKA fusion protein levels in KM12 cells (Western blot). As to conditions: 16 h; TPM3-TRKA degradation in KM12 cells at 10 nM compound, category of percentage degradation; read-out: Degradation (at 10 nM). The format is cell-based. The method, then:
KM12 cells were treated with DMSO or indicated compounds at 100 nM for 16 hours.
KM12 cells were treated with DMSO or indicated compounds at 0. 1 nM, 1 nM or 10 nM for 16 hours.
KM12 cells were treated with DMSO or indicated compounds at various concentrations for 16 hours.
KM12 cells were treated with DMSO or indicated compounds at various concentrations for 4 hours.
KM12 cells (a cancer model comprising a colon cancer cell line) were treated with DMSO or indicated compounds at various concentrations for 4 hours.
KM12 cells were treated with heterobifunctional compounds or their corresponding control compounds at 10 nM or 100 nM for 16 hours.
KM12 cells were treated with heterobifunctional compounds or their corresponding control compounds at 0.4-30 nM for 8-16 hours. […] Cells were authenticated using the short tandem repeat (STR) assays. […] Stable cell lines were established by lentivirus transduction, selected and maintained in medium containing 1 μg/mL puromycin (Beyotime Biotechnology).
Cultured cells were washed with cold PBS once and lysed in cold RIPA buffer supplemented with protease inhibitors and phosphatase inhibitors (Beyotime Biotechnology). The solutions were then incubated at 4° C. for 30 minutes with gentle agitation to fully lyse cells. For tumor tissues, tumors were cut into small pieces, milled with cold RIPA buffer using a mechanical homogenizer and lysed for 1 hour at 4° C. Cell lysates were centrifuged at 13,000 rpm for 10 minutes at 4° C. and pellets were discarded. Total protein concentrations in the lysates were determined by BCA assays (Beyotime Biotechnology). Cell lysates were mixed with Laemmli loading buffer to 1× and heated at 99° C. for 5 min. Proteins were resolved on SDS-PAGE and visualized by chemiluminescence. Images were taken by a ChemiDoc MP Imaging system (Bio-Rad). Protein bands were quantitated using the software provided by Bio-Rad.

T1 sequence (P04629 with tags, fused parts or gaps): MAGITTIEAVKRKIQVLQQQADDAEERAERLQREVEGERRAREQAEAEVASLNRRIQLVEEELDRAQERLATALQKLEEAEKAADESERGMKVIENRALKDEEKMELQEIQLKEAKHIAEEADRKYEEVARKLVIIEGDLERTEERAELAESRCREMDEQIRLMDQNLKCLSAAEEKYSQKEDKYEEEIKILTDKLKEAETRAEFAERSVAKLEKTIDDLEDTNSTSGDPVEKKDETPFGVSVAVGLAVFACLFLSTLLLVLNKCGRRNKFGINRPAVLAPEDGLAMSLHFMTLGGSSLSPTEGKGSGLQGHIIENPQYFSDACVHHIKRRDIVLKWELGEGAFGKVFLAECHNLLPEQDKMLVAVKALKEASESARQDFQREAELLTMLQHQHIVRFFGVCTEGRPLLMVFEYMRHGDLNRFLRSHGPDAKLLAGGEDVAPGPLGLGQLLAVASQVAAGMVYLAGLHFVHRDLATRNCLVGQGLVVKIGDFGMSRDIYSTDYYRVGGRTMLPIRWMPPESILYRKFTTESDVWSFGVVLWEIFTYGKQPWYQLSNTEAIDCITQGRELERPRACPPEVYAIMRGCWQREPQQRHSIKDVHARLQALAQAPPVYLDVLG

For the compound `O=C1CCC(N2C(=O)c3cccc(NCCOCCOCCOCCOCCC(=O)N4CCN(c5ccc(C(=O)Nc6n[nH]c7ccc(Cc8cc(F)cc(F)c8)cc67)c(NC6CCOCC6)c5)CC4)c3C2=O)C(=O)N1` (stereo not drawn) [CPD-031, N-(5-(3,5-Difluorobenzyl)-1H-indazol-3-yl)-4-(4-(1-((2-(2,6-dioxopiperidin-3-yl)-1,3-dioxoisoindolin-4-yl)amino)-3,6,9,12-tetraoxapentadecan-15-oyl)piperazin-1˜yl)-2-((tetrahydro-2H-pyran-4-yl)amino)benzamide], the percent degradation of TPM3-TRKA protein at 0.01 µM is > 80%.
Next, `O=C1CCC(N2C(=O)c3cccc(NCCOCCOCCC(=O)N4CCN(c5ccc(C(=O)Nc6n[nH]c7ccc(Cc8cc(F)cc(F)c8)cc67)c(NC6CCOCC6)c5)CC4)c3C2=O)C(=O)N1` (stereo not drawn) [CPD-032, N—(S-(3,5-Difluorobenzyl)-1H-indazol-3-yl)-4-(4-(3-(2-(2-((2-(2,6-dioxopiperidin-3-yl)-1,3-dioxoisoindolin-4-yl)amino)ethoxy)ethoxy)propanoyl)piperazin-1-yl)-2-((tetrahydro-2H-pyran-4-yl)amino)benzamide]: > 80%; `Cc1ncsc1-c1ccc(CNC(=O)[C@@H]2C[C@@H](O)CN2C(=O)[C@@H](NC(=O)CCCCCCC(=O)N2CCN(c3ccc(C(=O)Nc4n[nH]c5ccc(Cc6cc(F)cc(F)c6)cc45)c(NC4CCOCC4)c3)CC2)C(C)(C)C)cc1` [CPD-033, (2S,4R)-1-((S)-2-(8-(4-(4-((5-(3,5-Difluorobenzyl)-1H-indazol-3-yl)carbamoyl)-3-((tetrahydro-2H-pyran-4-yl)amino)phenyl)piperazin-1-yl)-8-oxooctanamido)-3,3-dimethylbutanoyl)-4-hydroxy-N-(4-(4-methylthiazol-5-yl)benzyl)pyrrolidine-2-carboxamide]: > 80%; `Cc1ncsc1-c1ccc(CNC(=O)[C@@H]2C[C@@H](O)CN2C(=O)[C@@H](NC(=O)CCCCCCCCC(=O)N2CCN(c3ccc(C(=O)Nc4n[nH]c5ccc(Cc6cc(F)cc(F)c6)cc45)c(NC4CCOCC4)c3)CC2)C(C)(C)C)cc1` [CPD-034, (28,4R)-1-((S)-2-(10-(4-(4-((5-(3,5-Difluorobenzyl)-1H-indazol-3-yl)carbamoyl)-3-((tetrahydro-2H-pyran-4-yl)amino)phenyl)piperazin-1-yl)-10-oxodecanamido)-3,3-dimethylbutanoyl)-4-hydroxy-N-(4-(4-methylthiazol-5-yl)benzyl)pyrrolidine-2-carboxamide]: < 50%.
As to `Cc1ncsc1-c1ccc(CNC(=O)[C@@H]2C[C@@H](O)CN2C(=O)[C@@H](NC(=O)CCCCCCCCCC(=O)N2CCN(c3ccc(C(=O)Nc4n[nH]c5ccc(Cc6cc(F)cc(F)c6)cc45)c(NC4CCOCC4)c3)CC2)C(C)(C)C)cc1` [CPD-035, (25,4R)-1-((S)-2-(11-(4-(4-((5-(3,5-Difluorobenzyl)-1H-indazol-3-yl)carbamoyl)-3-((tetrahydro-2H-pyran-4-yl)amino)phenyl)piperazin-1-yl)-11-oxoundecanamido)-3,3-dimethylbutanoyl)-4-hydroxy-N-(4-(4-methylthiazol-5-yl)benzyl)pyrrolidine-2-carboxamide], the percent degradation of TPM3-TRKA protein at 0.01 µM is < 50%.
Regarding `Cc1ncsc1-c1ccc(CNC(=O)[C@@H]2C[C@@H](O)CN2C(=O)[C@@H](NC(=O)CCCCCCCC(=O)N2CCN(c3ccc(C(=O)Nc4n[nH]c5ccc(Cc6cc(F)cc(F)c6)cc45)c(NC4CCOCC4)c3)CC2)C(C)(C)C)cc1` [CPD-037, (25,4R)-1-((S)-2-(9-(4-(4-((5-(3,5-Difluorobenzyl)-1H-indazol-3-yl)carbamoyl)-3-((tetrahydro-2H-pyran-4-yl)amino)phenyl)piperazin-1-yl)-9-oxononanamido)-3,3-dimethylbutanoyl)-4-hydroxy-N-(4-(4-methylthiazol-S-yl)benzyl)pyrrolidine-2-carboxamide], the percent degradation of TPM3-TRKA protein at 0.01 µM fell in the range of 50 to 80%.
